Consider twelve molecules from ChEMBL document CHEMBL1201862, “PubChem BioAssay data set” (2004).

Among the test systems are SNB-75; KM12; Malme-3M; M14; DU-145; NCI-H460; HCT-116; MDA-MB-231; HT-29; MDA-N; MCF7; SF-295; IGROV-1; SK-MEL-2; U-251; K562; SNB-19; RXF 393; A498.
Holding throughout (experiment): DTP human tumour cell line panel, 48 h

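Dose response: 5 concentrations. Exposure: 48 h. Format: 96-well plates. Endpoint: linear interpolation; highest concentration if not reached. The concentration for 50% growth inhibition is given as GI50.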 Calls of active or inactive are those of the source. Rule as the data show it: active = GI50 up to about 1.1 µM and inactive = higher. A value given as a limit tells only on which side of the number the result lay.

As to `NCCC(=O)NC(Cc1c[nH]cn1)C(=O)O` (stereo not drawn), the GI50 with SNB-75, in the test on KM12, in the test with Malme-3M, in the test on M14, in the test on DU-145 and in the test with NCI-H460 was > 100 µM (inactive) in each case. The GI50 in the test with HCT-116, in the test with MDA-MB-231, in the test with HT-29, with MDA-N, with MCF7 and with SF-295 was > 100 µM (inactive) throughout. Moreover, the GI50 with IGROV-1, with SK-MEL-2, in the test on U-251, in the test with K562 and in the test on SNB-19 was > 100 µM (inactive) in each case.
For the molecule `C=CC1(c2ccc(Br)cc2)OCCCO1`, the GI50 with SNB-75, in the test on KM12, in the test with Malme-3M, in the test with M14, in the test with DU-145 and in the test with NCI-H460 was > 100 µM (inactive) throughout. In addition, the GI50 with HCT-116, in the test with MDA-MB-231, in the test on HT-29, in the test on MDA-N, with MCF7 and in the test with SF-295 was > 100 µM (inactive) throughout. Besides, the GI50 with IGROV-1, in the test on SK-MEL-2, in the test on U-251, in the test with RXF 393, in the test with K562 and in the test with SNB-19 was > 100 µM (inactive) throughout.
Regarding `COc1ccc(-c2nc(Sc3c([N+](=O)[O-])ncn3C)n[nH]2)cc1`, the GI50 in the test on SNB-75 was 4.92 µM (inactive); with KM12 it was 1.99 µM (inactive); with Malme-3M, 2.6 µM (inactive); in the test with M14, 2.17 µM (inactive); with A498 it was 10.5 µM (inactive); with NCI-H460 it was 8.77 µM (inactive). The GI50 in the test on HCT-116 is 2.81 µM (inactive); in the test with HT-29, 2.39 µM (inactive); with SF-295, 3.33 µM (inactive); in the test with IGROV-1, 4.12 µM (inactive); in the test on SK-MEL-2, 2.25 µM (inactive); in the test on U-251 it was 2.25 µM (inactive). Further, the GI50 in the test with RXF 393 is 1.77 µM (inactive); with K562 it was 2.99 µM (inactive); in the test with SNB-19, 13 µM (inactive).
In the case of `CCCCNC(=O)Cn1c2ccc(Br)cc2c2nc3ccccc3nc21`, the GI50 is 51.9 µM (inactive) in the test with SNB-75; > 100 µM (inactive) in the test with KM12; > 100 µM (inactive) in the test on M14; > 100 µM (inactive) in the test with A498; > 100 µM (inactive) with DU-145; 64.3 µM (inactive) with HCT-116. For the same molecule, the GI50 in the test with MDA-MB-231, in the test on HT-29, with MDA-N, with SF-295, in the test on IGROV-1 and in the test with SK-MEL-2 was > 100 µM (inactive) throughout. The GI50 in the test with U-251, with RXF 393, in the test on K562 and in the test on SNB-19 was > 100 µM (inactive) each time.
On to `N#Cc1ccc(C2NN=CC23C(=O)c2ccccc2OC3c2ccccc2)cc1` (stereo not drawn), for which the GI50 is 36.4 µM (inactive) in the test with KM12; 53.7 µM (inactive) with Malme-3M; 97.1 µM (inactive) in the test on M14; 26.9 µM (inactive) in the test with A498; 47.1 µM (inactive) with DU-145; 27.4 µM (inactive) in the test with NCI-H460. Further, the GI50 is 20.5 µM (inactive) in the test on HCT-116; 57.4 µM (inactive) in the test with MDA-MB-231; 31.7 µM (inactive) with HT-29; 34.2 µM (inactive) in the test on MCF7; 34.4 µM (inactive) in the test with SF-295; 50.6 µM (inactive) with IGROV-1. Besides, the GI50 in the test on SK-MEL-2 is 29.5 µM (inactive); in the test with U-251 it was 23.8 µM (inactive); with RXF 393 it was 15 µM (inactive); in the test on K562 it was 33.5 µM (inactive); in the test on SNB-19 it was 27.6 µM (inactive).
For `CC1CN=C(N(Cc2ccc(F)cc2)C(=O)Nc2ccc(Cl)cc2)S1` (stereo not drawn), the GI50 was 18.2 µM (inactive) in the test on SNB-75; 14 µM (inactive) in the test on KM12; 34.8 µM (inactive) with Malme-3M; 0.51 µM (active) in the test on M14; 18.9 µM (inactive) in the test with A498; 61.9 µM (inactive) with DU-145. Further, the GI50 with NCI-H460 was 18.7 µM (inactive); with HCT-116 it was 22.3 µM (inactive); with MDA-MB-231 it was 32.3 µM (inactive); in the test with HT-29 it was 17.8 µM (inactive); in the test with MDA-N it was 11.7 µM (inactive); in the test with MCF7 it was 28.8 µM (inactive). The GI50 in the test with SF-295 is 27.7 µM (inactive); in the test on IGROV-1 it was 18.9 µM (inactive); in the test with SK-MEL-2, 15.1 µM (inactive); in the test on U-251 it was 32.4 µM (inactive); with K562 it was 9.23 µM (inactive); in the test with SNB-19 it was 95.1 µM (inactive).
`CN(C)C(=N)NC(=S)N(C)C`: the GI50 with SNB-75, with KM12, with Malme-3M, in the test with M14, in the test on A498 and in the test on NCI-H460 was > 100 µM (inactive) throughout. In addition, the GI50 in the test on HCT-116, in the test with HT-29, in the test on SF-295, in the test with IGROV-1, in the test with SK-MEL-2 and in the test with U-251 was > 100 µM (inactive) each time. For the same molecule, the GI50 in the test on RXF 393, in the test with K562 and in the test on SNB-19 was > 100 µM (inactive) throughout.
For `O=c1[nH]c(=O)n(C2OC(CO)C(O)C2O)cc1OCCCc1ccccc1` (stereo not drawn), the GI50 with KM12, with Malme-3M, in the test with M14, in the test on A498, with DU-145 and in the test with NCI-H460 was > 100 µM (inactive) each time. Moreover, the GI50 with HCT-116, in the test on MDA-MB-231, in the test on HT-29, with MDA-N, with MCF7 and with SF-295 was > 100 µM (inactive) in each case. For the same molecule, the GI50 with IGROV-1, with SK-MEL-2, in the test on RXF 393 and with SNB-19 was > 100 µM (inactive) throughout.
In the case of `CCOC(=O)[C@H]1Nc2ccc(C)cc2C2c3ccccc3CC21` (stereo partly drawn), the GI50 was 46.1 µM (inactive) in the test on SNB-75; > 100 µM (inactive) in the test with KM12; > 100 µM (inactive) in the test with Malme-3M; > 100 µM (inactive) in the test with M14; 33.4 µM (inactive) with A498; > 100 µM (inactive) in the test with NCI-H460. The GI50 is > 100 µM (inactive) in the test with HCT-116; > 100 µM (inactive) in the test on HT-29; 74.1 µM (inactive) with SF-295; > 100 µM (inactive) with IGROV-1; > 100 µM (inactive) in the test with SK-MEL-2; > 100 µM (inactive) with U-251. Moreover, the GI50 in the test on RXF 393 was 31.6 µM (inactive); in the test on K562 it was > 100 µM (inactive); with SNB-19, > 100 µM (inactive).
Consider `O=C(CC(C(=O)c1cccs1)c1ccccc1)c1ccccc1O` (stereo not drawn), for which the GI50 in the test with SNB-75 was > 20.6 µM (inactive); in the test with KM12 it was 20.9 µM (inactive); in the test with M14 it was 4 µM (inactive); with DU-145, 36.4 µM (inactive); with NCI-H460, 48.1 µM (inactive); in the test on HCT-116 it was 4.74 µM (inactive). In addition, the GI50 was 11.9 µM (inactive) with HT-29; 4.93 µM (inactive) with MDA-N; 9.86 µM (inactive) in the test on MCF7; 8.67 µM (inactive) in the test on SF-295; 4.98 µM (inactive) in the test on IGROV-1; > 21.8 µM (inactive) in the test with SK-MEL-2. Also, the GI50 in the test on U-251 was 9.93 µM (inactive); with RXF 393, 5.19 µM (inactive); with K562, 3.1 µM (inactive); in the test with SNB-19 it was 23.9 µM (inactive).
`N#COc1ccc(Oc2ccc(OC#N)cc2)cc1`: the GI50 in the test with SNB-75 is 93.5 µM (inactive); in the test with KM12, > 100 µM (inactive); with Malme-3M it was > 100 µM (inactive); in the test with M14, > 100 µM (inactive); in the test with A498, > 100 µM (inactive); with NCI-H460 it was 28.2 µM (inactive). Moreover, the GI50 is > 100 µM (inactive) in the test with HCT-116; 70.6 µM (inactive) in the test with HT-29; 98.4 µM (inactive) with SF-295; > 100 µM (inactive) with IGROV-1; > 100 µM (inactive) in the test with SK-MEL-2; 85.7 µM (inactive) in the test on U-251. Also, the GI50 in the test on RXF 393 was > 100 µM (inactive); in the test on K562 it was 36.7 µM (inactive); in the test on SNB-19, > 100 µM (inactive).
Consider `CC(=O)OC1CC[C@@]2(C)C(CC(OC3OC(CO)C(O)C(O)C3O)[C@]3(C)C2CCC24CC23CC[C@H]4C(C)CC(O)[C@@H](O)C(C)(C)O)C1(C)C` (stereo partly drawn), for which the GI50 with SNB-75 is 11.4 µM (inactive); in the test on KM12, 10.5 µM (inactive); in the test with Malme-3M, 9.51 µM (inactive); in the test on M14, 12 µM (inactive); with A498, 16.8 µM (inactive); with NCI-H460 it was 18.8 µM (inactive). Moreover, the GI50 with HCT-116 was 9.91 µM (inactive); in the test with HT-29, 16.9 µM (inactive); in the test with SF-295, 22.4 µM (inactive); with IGROV-1, 11.5 µM (inactive); in the test with SK-MEL-2 it was 10.3 µM (inactive); with U-251, 9.71 µM (inactive). The GI50 in the test on RXF 393 was 12.5 µM (inactive); in the test with K562, 15.4 µM (inactive); in the test on SNB-19 it was 14.2 µM (inactive).
